Laboratory results reported in patent US20220062291A1, “COMPOSITIONS AND METHODS OF TREATING CANCERS BY ADMINISTERING A PHENOTHIAZINE-RELATED DRUG THAT ACTIVATES PROTEIN PHOSPHATASE 2A (PP2A) WITH REDUCED INHIBITORY ACTIVITY TARGETED TO THE DOPAMINE D2 RECEPTOR AND ACCOMPANYING TOXICITY” (DANA-FARBER CANCER INSTITUTE, INC., priority 2018, published 2022).

Assays:
[1] = test system: α and β tubulins in KOPT-K1 cell lysates; test: Cellular thermal shift assay (CETSA), tubulins; type: binding, human
Description: Data are presented as means±s.d. (n=3, biological replicates). The quantitation of levels α and β tubulins detected by specific antibodies was determined using western blotting (FIG. 19E). Alpha (α) and tubulin levels were quantified during CETSA by Image J software of KOPT-K1 cell lysates treated or untreated with iPAP1 at various temperatures for 3 minutes. […] The CETSA curves for KOPT-K1 cell lysates with and without the addition of iPAP1 after incubation for 3 minutes are shown in FIG. 19F and FIG. 19G. […] Data are presented as means±s.d. (n=3, biological replicates). The quantitation of levels α and β tubulins detected by specific antibodies using western blotting (FIG. 19H). α and β tubulin levels were quantified during CETSA by Image J software of KOPT-K1 cell lysates treated or untreated with iPAP1 at various temperature for 3 minutes.

[2] = test system: KOPT-K1 cells with PP2A subunit inactivation; test: Drug sensitivity of KOPT-K1 sublines with CRISPR-Cas9 PP2A subunit knockout; type: cell-based, human; conditions: 72 hours
Description: Two gRNAs with different target sequences were designed for each subunit (#1 and #2). Control gRNAs target luciferase gene. […] Data are presented as means±s.d. (n=3-5, biological replicates). ***P<0.001 by Student's t-test (FIG. 3A).
SMAP sensitivity in KOPT-K1 cells was measured after PP2A subunit inactivation. Only each subunit of PP2A was knocked out by CRISPR-Cas9 with unique gRNAs. […] Two gRNAs with different target sequences were designed for each subunit (#1 and #2). Control gRNAs target luciferase gene. Data are presented as means±s.d. (n=3-5, biological replicates). ***P<0.001 by Student's t-test (FIG. 3B).
To identify the subunits of PP2A that are essential for the antitumor activity of iPAP1, CRISPR-Cas9 was used to establish a series of sublines of KOPT-K1 T-ALL cells, each lacking one of the 19 specific PP2A subunits (FIG.1A-FIG. 2), and to examine their sensitivity to iPAP1-induced growth inhibition.
With this panel of PP2A subunit knockout cells in hand, we analyzed the PP2A subunits required for growth suppression by SMAPs, another class of allosteric activators of PP2A (Gutierrez et al., J. Clin. Invest. 124:644-655 (2014); Sangodkar et al., J. Clin. Invest. 127:2081-2090 (2017)). […] Both the PPP2R5E and PPP2R2A regulatory subunits of PP2A were among the most highly expressed in a series of 16 different T-ALL cell lines (FIG. 5A). Thus, the assembly of structurally different heterotrimeric PP2A complexes induced with either iPAP1 or SMAP cannot be attributed to imbalances in cellular expression levels of individual PP2A subunits, but likely stems from differences in the allosteric alterations of the A subunit protein resulting from the binding of these two classes of small molecules, which have different chemical structures.

[3] = test system: MYBL2 Ser241 in KOPT-K1 cells; test: Phosphoproteomics analysis; type: cell-based, human; conditions: 3 hours
Description: To evaluate phosphopeptides in KOPT-K1 cells by phosphoproteomics analysis, cells were treated with PPZ at 10 μM or iPAP1 at 1 μM for 3 hours.

[4] = female, C57BL/6, mouse, in vivo, po, 1 week
Description: PPZ and iPAP1 were each given per orally to eight-week-old female C57BL/6 mice every 24 hours (n=3 for each cohort). The mice were monitored for four recognized types of dopamine receptor D2 mediated toxicity, namely: i) general activity; ii) reactivity to touch; iii) fear/startle to sound; and iv) tone of abdominal muscle. Behavioral monitoring was done at 15 minutes, 1 hour, 4 hours and 24 hours after each treatment. PPZ and iPAP1 were each administered at 0, 2.5, 5, 10, 20 and 40 mg/kg body weight/dose, and iPAP1 was also administered at 80 mg/kg body weight/dose.

[5] = test system: T-ALL cells isolated from Tg(rag2:Myc; rag2:EGFP) zebrafish; test: Zebrafish embryos transplanted with T-ALL cells, GFP-positive leukemic area; type: in vivo
From the text: (n=10) N.S.; not significant, **P<0.01 and ****P<0.0001 by two-tailed Welch's t-test.

[6] = biological target: tubulin from porcine brain (Sus scrofa, UniProt P02550+P02554); test: Fluorescence-based tubulin polymerization assay; conditions: concentrations of up to 2.5 or 5 μM
tubulin from porcine brain, sequence (P02550 whole entry): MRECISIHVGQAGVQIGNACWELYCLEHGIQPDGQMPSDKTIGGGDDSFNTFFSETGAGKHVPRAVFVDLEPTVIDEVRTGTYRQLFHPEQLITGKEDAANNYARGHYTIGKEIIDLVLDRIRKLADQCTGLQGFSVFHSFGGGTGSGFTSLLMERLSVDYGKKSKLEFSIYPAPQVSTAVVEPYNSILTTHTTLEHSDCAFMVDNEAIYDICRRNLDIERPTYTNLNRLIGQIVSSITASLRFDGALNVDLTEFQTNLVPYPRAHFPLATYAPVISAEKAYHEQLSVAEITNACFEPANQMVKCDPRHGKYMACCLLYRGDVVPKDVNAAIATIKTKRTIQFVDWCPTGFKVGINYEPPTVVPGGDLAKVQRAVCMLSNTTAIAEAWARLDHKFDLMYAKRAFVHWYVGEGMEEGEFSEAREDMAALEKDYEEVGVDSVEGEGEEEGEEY
tubulin from porcine brain, sequence (P02554 whole entry): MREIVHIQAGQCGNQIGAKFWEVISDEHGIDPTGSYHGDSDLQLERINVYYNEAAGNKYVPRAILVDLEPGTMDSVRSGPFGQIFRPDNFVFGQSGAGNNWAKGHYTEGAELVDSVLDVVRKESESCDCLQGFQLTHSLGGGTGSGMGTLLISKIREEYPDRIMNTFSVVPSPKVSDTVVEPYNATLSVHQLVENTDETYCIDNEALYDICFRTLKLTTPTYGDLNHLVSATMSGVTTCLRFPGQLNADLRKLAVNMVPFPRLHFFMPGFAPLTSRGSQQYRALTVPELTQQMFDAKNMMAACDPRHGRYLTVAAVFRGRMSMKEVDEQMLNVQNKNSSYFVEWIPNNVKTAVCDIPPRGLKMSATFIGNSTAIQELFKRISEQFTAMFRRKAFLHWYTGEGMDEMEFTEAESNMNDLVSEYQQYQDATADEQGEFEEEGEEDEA
Description: Briefly, free tubulin (2 mg/mL) in buffer supplemented with 1 mM GTP and 15% glycerol was employed. Then, the test compounds were added to tubulin solution and changes in the fluorescence intensity (ex=370 nm, em=445 nm) were measured by kinetic reading at 37° C. using SpectraMax® M5 Microplate reader (Molecular Devices LLC).

[7] = test system: KOPT-K1 cells; test: KOPT-K1 cell viability (PrestoBlue), IC50 after 72 hours; type: cell-based, human
Description: (§1) For IC50 calculation, KOPT-K1 cells were treated with each of the compounds at various concentrations for 72 hours, followed by the determination of viable cell numbers with PrestoBlue® cell viability reagent. For the PP2A phosphatase activity assay, KOPT-K1 cells were treated with each of the compounds at 10 μM for 3 hours before phosphatase activity was measured. Dopamine D2 receptor activity was monitored in HEK293T cells coexpressing the dopamine D2 receptor, modified G protein and SRE luciferase reporter. Cells were treated with each of the compound at 10 μM for 3 hours, then lysed for the luciferase reporter assay.
(§2) For IC50 calculations, KOPT-K1 cells were treated with each of the compound at various concentrations for 72 hours, then their viability was examined by PrestoBlue® Cell Viability Reagent (Thermo Fisher Scientific). For PP2A phosphatase activity assay, KOPT-K1 cells were treated with each of the compound at 10 μM for three hours before the activity of PP2A was quantified using PP2A Immunoprecipitation Phosphatase Assay Kit (Merck Millipore®). DRD2 activity was monitored in HEK293T cells expressing DRD2, modified G protein and SRE luciferase reporter. Cells were treated with each of the compounds at 10 μM for three hours, then lysed for luciferase reporter assay. […] The biochemical assays were performed as indicated in Examples 7 and 8.

[8] = biological target: T1, PP2A (Homo sapiens, UniProt P30153+P67775+Q16537); test: PP2A phosphatase activity in treated KOPT-K1 cells; type: cell-based
T1 construct: are endogenously expressed by KOPTK1 cells; endogenous in cells; host or cells: KOPT-K1 T-ALL cells / lysates
T1 sequence (P30153 2-589): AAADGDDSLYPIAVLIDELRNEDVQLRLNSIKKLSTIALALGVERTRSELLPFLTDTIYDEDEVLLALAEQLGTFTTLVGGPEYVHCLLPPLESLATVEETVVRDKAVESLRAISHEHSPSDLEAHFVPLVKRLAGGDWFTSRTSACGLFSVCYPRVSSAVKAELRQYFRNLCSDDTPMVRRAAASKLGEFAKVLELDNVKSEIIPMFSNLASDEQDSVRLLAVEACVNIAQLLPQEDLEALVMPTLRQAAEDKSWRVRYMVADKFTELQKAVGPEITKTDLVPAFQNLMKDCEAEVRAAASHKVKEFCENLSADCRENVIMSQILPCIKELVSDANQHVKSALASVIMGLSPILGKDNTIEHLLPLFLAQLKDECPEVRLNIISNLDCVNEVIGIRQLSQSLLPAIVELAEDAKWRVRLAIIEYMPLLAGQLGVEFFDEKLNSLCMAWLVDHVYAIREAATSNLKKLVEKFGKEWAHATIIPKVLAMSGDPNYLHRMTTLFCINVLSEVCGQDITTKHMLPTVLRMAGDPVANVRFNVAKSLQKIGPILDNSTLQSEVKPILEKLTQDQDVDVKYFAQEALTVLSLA
T1 sequence (P67775 whole entry): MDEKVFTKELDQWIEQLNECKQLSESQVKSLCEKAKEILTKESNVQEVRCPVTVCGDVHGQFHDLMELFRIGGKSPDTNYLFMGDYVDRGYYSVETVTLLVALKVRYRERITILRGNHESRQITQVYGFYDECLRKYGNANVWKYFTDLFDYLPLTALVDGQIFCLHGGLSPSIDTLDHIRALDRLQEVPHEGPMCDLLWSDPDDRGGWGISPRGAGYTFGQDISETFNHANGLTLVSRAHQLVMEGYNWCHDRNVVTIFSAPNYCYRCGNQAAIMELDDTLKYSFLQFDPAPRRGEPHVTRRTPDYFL
T1 sequence (Q16537 2-467): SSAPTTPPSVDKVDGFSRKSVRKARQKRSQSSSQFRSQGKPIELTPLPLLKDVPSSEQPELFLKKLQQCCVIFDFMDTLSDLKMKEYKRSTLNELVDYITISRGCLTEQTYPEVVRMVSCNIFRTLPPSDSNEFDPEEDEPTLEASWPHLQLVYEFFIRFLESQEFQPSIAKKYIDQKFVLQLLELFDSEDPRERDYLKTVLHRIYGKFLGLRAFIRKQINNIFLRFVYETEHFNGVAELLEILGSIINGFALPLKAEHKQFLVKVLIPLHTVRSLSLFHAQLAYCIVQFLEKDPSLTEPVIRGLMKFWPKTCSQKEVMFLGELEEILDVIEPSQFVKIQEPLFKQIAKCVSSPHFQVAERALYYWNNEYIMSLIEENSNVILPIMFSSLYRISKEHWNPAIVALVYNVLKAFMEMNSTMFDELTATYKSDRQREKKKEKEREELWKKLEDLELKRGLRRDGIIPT
Description: Data are presented as means±s.d. (n=3, biological replicates). KO; knock out. **P<0.01, ***P<0.001 by student's t-test.
as §1
as §2, with “For PP2A phosphatase activity assay, KOPT-K1 cells were treated with each of the compound at 10 μM for three hours before the activity of PP2A was quantified using PP2A Immunoprecipitation Phosphatase Assay Kit (Merck Millipore®).” left out

Structure (SMILES) | protection of α or β tubulins from thermal degradation [1] | PP2A subunits whose knockout gives resistance ([2]; 5 μM) | phosphorylation of MYBL2 ([3]; 10 μM) | dose showing neurological toxicity [4] [mg/kg body weight/dose] | activity against T-ALL (GFP signal) ([5]; 5 μM, five days) | inhibition of tubulin polymerization [6] | IC50 ([7]; Homo sapiens, KOPTK1, 72 h, 72 hours, PrestoBlue, read-out: IC50 value against KOPT-K1 cells) [nM] | more active than PPZ for mediating T-ALL cell killing ([7]; KOPT-K1, 72 hours) [times] | PP2A subunits whose knockout gives resistance ([2]; 0.5 μM) | phosphorylation of MYBL2 ([3]; 1 μM) | more active than PPZ for stimulating PP2A phosphatase activity ([8]; KOPT-K1, 10 μM for three hours) [times] | phosphatase activity of PP2A relative to basal level ([8]; WT KOPT-K1 cells, 1 μM) | reduction of the GFP signal more than PPZ ([5]; 2 μM iPAP1 vs 5 μM PPZ, five days) | GFP-positive leukemic area ([5]; serial dosage)
OCCN1CCN(CCCN2c3ccccc3Sc3ccc(Cl)cc32)CC1 [PPZ, perphenazine, reference compound] | did not protect α or β tubulins from thermal degradation | resistance to PPZ treatment only when the specific subunits PPP2R1A, PPP2CA or PPP2R5E were knocked out | completely dephosphorylated at Ser241 | ≥ 5 | some activity against T-ALL with reduced GFP signal | – | – | – | – | – | – | – | – | –
COc1ccc(C(=O)N2c3ccccc3Sc3ccc(Cl)cc32)cc1 [iPAP1] | did not protect α or β tubulins from thermal degradation | – | – | – | – | inhibition of tubulin polymerization was not detected | ~400 | 10 | resistance to iPAP1 treatment only when the PPP2R1A, PPP2CA or PPP2R5E subunits were disrupted | completely dephosphorylated at Ser241 | 10 | up to twice its basal level | at least 5 fold | dose dependent increased T-ALL cell killing
